Values of other authors in US9107921B2, “Oral dosage forms for oxygen containing active agents and oxyl-containing polymers” (Spriaso LLC, priority 2012, dated 2015).
Counter-ions that a name gives are not always drawn.

Columns and labels:
[1] = for plasma half-life: in vivo

For `COc1ccc2c3c1O[C@H]1C(=O)CC[C@H]4[C@@H](C2)N(C)CC[C@]314` [Hydrocodone], the plasma half-life [1] is listed as 3.8 to 6 h.
For `COc1ccc2c3c1O[C@H]1[C@@H](O)C=C[C@H]4[C@@H](C2)N(C)CC[C@@]341` [codeine, 3-methylmorphine], the plasma half-life [1] is given as 2.5 to 3 h.
In the case of `CC(C)NCC(O)COc1cccc2ccccc12` (centres unmarked) [propranolol HCl], the “time to 50% drug release in vitro” value (matrix tablet, HPMC (Methocel K4M) to active agent ratio 1:0.3 by weight) is given as “about 4 hours”.
In the case of `CN(C)CCC(c1ccc(Cl)cc1)c1ccccn1` (centres unmarked) [chlorpheniramine, Chlorpheniramine], the “time to peak plasma concentration” value ([1]; following oral administration) is given as 2 to 3 h and the “time to 50% in vitro drug release” value (single-layer matrix tablet, HPMC polymer (Methocel K4M) to active ratio of about 1:1) is given as “about 3.5 hours”.
